Assay results from paper PMC12956279 (2026).

Experiments:
Test in all cases: fluorescence titration (light-up), quadratic fit
Conditions in all cases: 100 mM KCl, 1 mM MgCl2; 40 mM HEPES pH 7.4 (7.5 in Results), room temperature; 1 µM dye, DNA varied
[1] = test system: 4LE-v4 (DNA, aptamer) TCCTTCGCACAGCACACCTGCCGTATAGCTCTGAATCAAGGATTTTAGGGAGGCGATTAGTAGGGATGATGCGGCAGTGGGCTTCGCAGAACAGTGTTTATTCTGCGAGGGGACTATCCTCCTGCC
[2] = test system: 11LE (11LE-v4) (DNA, aptamer) TCCTTCGCACAGCACACCTGCCGTATAGCTCTGAATCAAGGATTTTAGGGAGGCGATGGTGTCTTAGTAGGGATGATGCGGCAGTGGGCTTCGCAGAACAGTGTTTATTCTGCGAGGGGACTAAGACTCCTCCTCCTGCC
[3] = test system: FLE (FLE-v4) (DNA, aptamer) TCCTTCGCACAGCACACCTGCCGTATAGCTCTGAATCAAGGATTTTAGGGAGGCGATAACGTGCTCAAGGTGTCTTAGTAGGGATGATGCGGCAGTGGGCTTCGCAGAACAGTGTTTATTCTGCGAGGGGACTAAGACTCCTTCAGCAAGTTAAGCTCCTCCTGCC
[4] = test system: 8LE-v4 (DNA, aptamer) TCCTTCGCACAGCACACCTGCCGTATAGCTCTGAATCAAGGATTTTAGGGAGGCGATGTCTTAGTAGGGATGATGCGGCAGTGGGCTTCGCAGAACAGTGTTTATTCTGCGAGGGGACTAAGACTCCTCCTGCC

`CC1=N/C(=C\c2cc(F)c(O)c(F)c2)C(=O)N1CC(F)(F)F` was tested, and the KD [1] was 6 (4.93, 7.18, 95% CI) µM, the KD [2] was 0.01 (0.01, 0.07, 95% CI) µM and the KD [3] was 0.07 (0.01, 0.16, 95% CI) µM. For the same compound, the KD [4] was 0.04 (0.01, 0.12, 95% CI) µM.
